Experimental data reported in patent US20040191326A1, “Taste-masking vehicle for coated oxazolidinone particles” (priority 2003, published 2004).
Where “and” joins values, the source holds several entries; their conditions need not be identical. Equal values may be shown once. Read-outs that look alike come from different tables or passages of the source.

Legend:
[1] = Viscosity measurements (Bohlin Rheometer), screening and optimization phases; type: physicochemical; conditions: sorbitol 9.9 molal, fructose 16.6 molal, sucrose 5.3 molal (highest concentrations studied)
Method: 2. Viscosity Measurements
In the screening and optimization phases, described below, viscosity measurements were made using a Bohlin Rheometer, under the following conditions: a 10.0 pascal sheer stress and a continuous, single sweep type at a temperature of 25.0° C.

[2] = Water activity (Pawkit water activity meter); type: physicochemical; conditions: sorbitol 9.9 molal, fructose 16.6 molal, sucrose 5.3 molal
Method: A Pawkit water activity meter uses a dielectric humidity sensor to measure the water activity (aw) of a sample. The unit is accurate to ±0.02 aw. The water activity meter was calibrated, using a 6.0 molal NaCl solution, before each new set of measurements was taken. Each sample was measured in duplicate.

[3] = cited from earlier work

SMILES | Viscosity of solution [1] | Water activity of solution [2] | Dosage with laxative effect ([3]; adults) [grams/day] | Dosage with laxative effect ([3]; children)
O=C(CO)[C@@H](O)[C@H](O)[C@H](O)CO [fructose] | 429 cps and 439 cps | 0.70 | – | –
OC[C@@H](O)[C@@H](O)[C@H](O)[C@@H](O)CO [sorbitol] | 48 cps | 0.81 | ≥ 20 | greater than 0.5 g/kg body weight
OC[C@H]1O[C@@](CO)(O[C@H]2O[C@H](CO)[C@@H](O)[C@H](O)[C@H]2O)[C@@H](O)[C@@H]1O [sucrose] | 119 cps | 0.86 | – | –
